≈ marks a conversion by molar mass, not a printed value. Like-named read-outs stand apart in the source and are kept apart here.
Tests used:
P. aeruginosa = conditions: for MIC: iron-starved BM-2 broth
B. anthracis 7702 cells = type: cell-based; conditions: 1:1 gallium-to-citrate molar ratio, approximately 20 hours of growth
Pa [1] = conditions: i.t. inoculation of a lethal dose of Pa followed by nasal instillation of a bolus of liquid; mouse; cited from earlier work
Pa [2] = conditions: against Pa; cited from earlier work

Compound: C[C@H]1[C@H](NC(=O)/C(=N\OC(C)(C)C(=O)O)c2csc(N)n2)C(=O)N1S(=O)(=O)O [Aztreonam]
- susceptibility category (R/S/I) (P. aeruginosa; Mucoid Strain 20JR): S
- susceptibility category (R/S/I) (P. aeruginosa; Mucoid Strain 35LK): S
- susceptibility category (R/S/I) (P. aeruginosa; Mucoid Strain 41JQ): R
- susceptibility category (R/S/I) (P. aeruginosa; Mucoid Strain 47JS): I
- susceptibility category (R/S/I) (P. aeruginosa; Mucoid Strain 62LL): R
- susceptibility category (R/S/I) (P. aeruginosa; Mucoid Strain 96JC): R
- susceptibility category (R/S/I) (P. aeruginosa; Mucoid Strain 97JE): R
- susceptibility category (R/S/I) (P. aeruginosa; Non-mucoid Strain 9HN): R
- susceptibility category (R/S/I) (P. aeruginosa; Non-mucoid Strain 30IX): S
- susceptibility category (R/S/I) (P. aeruginosa; Non-mucoid Strain 30JS): S
- susceptibility category (R/S/I) (P. aeruginosa; Non-mucoid Strain 38LL): R
- susceptibility category (R/S/I) (P. aeruginosa; Non-mucoid Strain 39IV): R
- susceptibility category (R/S/I) (P. aeruginosa; Non-mucoid Strain 46IV): R
- susceptibility category (R/S/I) (P. aeruginosa; Non-mucoid Strain 55HY): I

Compound: O=[N+]([O-])[O-].O=[N+]([O-])[O-].O=[N+]([O-])[O-].[Ga+3] [Gallium, gallium nitrate]
- OD600 nm (B. anthracis 7702 cells; Gallium concentration 6.8 μM, TSB, 37° C.): 0.000
- OD600 nm (B. anthracis 7702 cells; Gallium concentration 23.3 μM): 0.000
- OD600 nm (B. anthracis 7702 cells; Gallium concentration 27.1 μM): 0.001
- OD600 nm (B. anthracis 7702 cells; Gallium concentration 88.9 μM): 0.003
- OD600 nm (B. anthracis 7702 cells; Gallium concentration 614.8 μM): 0.000
- OD600 nm (B. anthracis 7702 cells; Gallium concentration 1709.9 μM): 0.000
- protection (Pa [1]): good protection
- bactericidal concentration (MBC) (Pa [2]): approximately 0.7 μg/mL
- minimum inhibitory concentration (MIC90) (Pa [2]): approximately 0.7 μg/mL
- MIC (P. aeruginosa; Mucoid Strain 20JR, 24 hours): <1 µg/mL
- MIC (P. aeruginosa; Mucoid Strain 35LK, 24 hours): <1 µg/mL
- MIC (P. aeruginosa; Mucoid Strain 41JQ, 24 hours): <32 µg/mL
- MIC (P. aeruginosa; Mucoid Strain 47JS, 24 hours): <1 µg/mL
- MIC (P. aeruginosa; Mucoid Strain 62LL, 24 hours): <1 µg/mL
- MIC (P. aeruginosa; Mucoid Strain 96JC, 24 hours): <1 µg/mL
- MIC (P. aeruginosa; Mucoid Strain 97JE, 24 hours): <1 µg/mL
- MIC (P. aeruginosa; Non-mucoid Strain 9HN, 24 hours): <2 µg/mL
- MIC (P. aeruginosa; Non-mucoid Strain 30IX, 24 hours): <1 µg/mL
- MIC (P. aeruginosa; Non-mucoid Strain 30JS, 24 hours): <1 µg/mL
- MIC (P. aeruginosa; Non-mucoid Strain 38LL, 24 hours): <1 µg/mL
- MIC (P. aeruginosa; Non-mucoid Strain 39IV, 24 hours): <1 µg/mL
- MIC (P. aeruginosa; Non-mucoid Strain 46IV, 24 hours): <1 µg/mL
- MIC (P. aeruginosa; Non-mucoid Strain 55HY, 24 hours): <1 µg/mL

Compound: NC[C@H]1O[C@H](O[C@H]2[C@H](O)[C@@H](O[C@H]3O[C@H](CO)[C@@H](O)[C@H](N)[C@H]3O)[C@H](N)C[C@@H]2N)[C@H](N)C[C@@H]1O [Tobramycin]
- susceptibility category (R/S/I) (P. aeruginosa; Mucoid Strain 20JR): S
- susceptibility category (R/S/I) (P. aeruginosa; Mucoid Strain 35LK): I
- susceptibility category (R/S/I) (P. aeruginosa; Mucoid Strain 41JQ): R
- susceptibility category (R/S/I) (P. aeruginosa; Mucoid Strain 47JS): R
- susceptibility category (R/S/I) (P. aeruginosa; Mucoid Strain 62LL): S
- susceptibility category (R/S/I) (P. aeruginosa; Mucoid Strain 96JC): R
- susceptibility category (R/S/I) (P. aeruginosa; Mucoid Strain 97JE): R
- susceptibility category (R/S/I) (P. aeruginosa; Non-mucoid Strain 9HN): R
- susceptibility category (R/S/I) (P. aeruginosa; Non-mucoid Strain 30IX): R
- susceptibility category (R/S/I) (P. aeruginosa; Non-mucoid Strain 30JS): S
- susceptibility category (R/S/I) (P. aeruginosa; Non-mucoid Strain 38LL): I
- susceptibility category (R/S/I) (P. aeruginosa; Non-mucoid Strain 39IV): S
- susceptibility category (R/S/I) (P. aeruginosa; Non-mucoid Strain 46IV): R
- susceptibility category (R/S/I) (P. aeruginosa; Non-mucoid Strain 55HY): R
- MIC (P. aeruginosa; Pseudomonas aeruginosa, 24 h, Non-mucoid Strain 9HN): 128 µg/mL (≈ 274 µM)
- MIC (P. aeruginosa; Pseudomonas aeruginosa, 24 h, Non-mucoid Strain 55HY): 128 µg/mL (≈ 274 µM)

Reference: US9539233B2, “Gallium formulation for the treatment and prevention of infectious diseases” (Aridis Pharmaceuticals Inc., priority 2009, dated 2017)
